Non-standard residues stand in square brackets, D forms with d. Residues, ends and D or L forms follow the SMILES beside them. Gly(octyl) = CCCCCCCC[C@H](N)C(=O)O
Key:
[1] = GLP-compliant 28-day inhalation toxicity study in monkeys; assay type: in vivo, cynomolgus monkey
Protocol: In a GLP-compliant 28-day inhalation toxicity study in cynomolgus monkeys, conducted by Charles River Laboratories Preclinical Services, Tranent, Edinburgh, UK, the formulation described in Example 2 and dilutions thereof as well as the vehicle were administered using the Pari eFlow® XL 30 nebulizer device (Pari Pharma, Starnberg, Germany) with an oro-nasal inhalation mask for 60 min per day for 28 days, followed by a 2-week recovery period. […] In total five males and five females were used for each dose of the toxicity study including recovery. Parameters assessed included clinical signs, body weights, electrocardiology, ophthalmic examination, clinical pathology, toxicokinetic parameters in the plasma, gross necropsy findings, organ weights and histopathologic examinations.

[2] = Phase-Ib study in CF patients, sputum concentrations (LC-MS/MS); assay type: in vivo, human
Protocol: Concentrations of active compound in sputum were calculated and Cmax and AUC0-tlast were determined.
Spontaneous sputum samples for PK assessments were collected during the following time intervals/periods:
On Day −1 as soon as possible after the subject's arrival at the study site (blank PK), on Day 1 in the period of time between 1 h and 3 h after start of inhalation, and in the morning of Day 2, at approx. 24 h after start of inhalation. Moreover, any spontaneous sputum expectoration between 0-1 h after start of inhalation was collected.
Spontaneous sputum samples were collected in polystyrene Petri dishes and put on ice immediately. All processing steps had to be performed with cold reagents and on ice whenever possible. Plugs were separated from saliva, but the latter was not discarded. If a sputum sample was taken for both PK and neutrophil elastase activity in sputum analysis, the plug was split in 2 approximately equal parts. One part was processed for PK analysis the other one for evaluation of neutrophil elastase activity in sputum.
For PK processing, the resulting plug was split in approximately 2 equal parts. […] The weight of the sputum samples (SP1+SP3) was determined and all samples were immediately put on dry ice for freezing. […]
The pharmacokinetic parameters mentioned above were calculated based on actual blood and sputum sampling times using non-compartmental procedures.

CCCCCCCC[C@@H]1NC(=O)[C@@H]2CCCN2C(=O)[C@H]2CCCN2C(=O)[C@H](Cc2ccc(O)cc2)NC(=O)[C@H](CCCCN)NC(=O)[C@H](CCC(N)=O)NC(=O)[C@@H]2CCCN2C(=O)[C@@H]2CCCN2C(=O)[C@H]([C@@H](C)CC)NC(=O)[C@H](CO)NC(=O)[C@H](C)NC(=O)[C@H]([C@@H](C)O)NC(=O)[C@H](CCC(=O)O)NC1=O [active compound, cyclo(-OctG-Glu-Thr-Ala-Ser-Ile-Pro-Pro-Gln-Lys-Tyr-^DPro-Pro-)] (cyclo([Gly(octyl)]ETASIPPQKY[dP]P))
NOAEL at 28 days ([1]; both sexes, in vivo, inhaled or intranasal, cynomolgus monkey, oro-nasal inhalation 60 min per day for 28 days): 112 mg/kg/day | Haematology and clinical pathology ([1]; cynomolgus monkey, in vivo): some minor, toxicologically insignificant changes | Histopathologic findings ([1]; cynomolgus monkey, in vivo): increased numbers of alveolar macrophages, perivascular/peribronchiolar infiltrates, and granular eosinophilic deposits in the lung and lymphoid hyperplasia in the tracheobronchial lymph nodes | Gross findings: lung weight ([1]; male monkeys at 112 mg/kg/day): increased lung weight | Body weight, clinical signs, ophthalmic, electrocardiographic and urinary findings ([1]; monkey, 11.2, 30.1 and 112 mg/kg/day): no body weight changes, clinical signs, ophthalmic or electrocardiographic findings or changes in urinary parameters attributable to drug treatment | Detection in sputum at 24 h after inhalation ([2]; all dose groups): still detected | Concentration in sputum relative to plasma ([2]; comparison of FIG. 4 and FIG. 3): approximately 10^3 fold
